Measured values: PubChem BioAssay AID192 (DTP/NCI, 2004)
Where “and” joins values, the source holds several entries; their conditions need not be identical. Equal entries are not always repeated. Inconclusive results and toxic doses are left out.

System: BDF1 mice, B16 melanoma ip, median survival T/C
Experiment: NCI In Vivo Anticancer Drug Screen. Data for tumor model B16 Melanoma (intraperitoneal) in B6D2F1 (BDF1) mice
Settings: endpoint: median survival time, higher = longer survival
In short: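 Compounds were tested in mice carrying transplantable tumors. Survival or tumor size was recorded, and each value is the treated-group measurement (T) divided by that of the vehicle-treated control group (C).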

[1] = dose: 3.13 mg/kg/injection, schedule: Q01DX009 (ip), vehicle: saline with Tween-80
[2] = dose: 6.25 mg/kg/injection, schedule: Q01DX009 (ip), vehicle: saline with Tween-80
[3] = dose: 100.0 mg/kg/injection, schedule: Q01DX009 (ip), vehicle: Klucel (hydroxypropylcellulose) (HPC)
[4] = dose: 200.0 mg/kg/injection, schedule: Q01DX009 (ip), vehicle: Klucel (hydroxypropylcellulose) (HPC)
[5] = dose: 25.0 mg/kg/injection, schedule: Q01DX009 (ip), vehicle: Klucel (hydroxypropylcellulose) (HPC)
[6] = dose: 50.0 mg/kg/injection, schedule: Q01DX009 (ip), vehicle: Klucel (hydroxypropylcellulose) (HPC)
[7] = dose: 25.0 mg/kg/injection, schedule: Q01DX009 (ip), vehicle: saline with Tween-80
[8] = dose: 100.0 mg/kg/injection, schedule: Q01DX009 (ip), vehicle: saline with Tween-80
[9] = dose: 12.5 mg/kg/injection, schedule: Q01DX009 (ip), vehicle: Klucel (hydroxypropylcellulose) (HPC)
[10] = dose: 50.0 mg/kg/injection, schedule: Q01DX009 (ip), vehicle: saline with Tween-80
[11] = dose: 200.0 mg/kg/injection, schedule: Q01DX009 (ip), vehicle: saline with Tween-80
[12] = dose: 400.0 mg/kg/injection, schedule: Q01DX009 (ip), vehicle: saline with Tween-80

C/C(=N/O)[c-]1[c-][c-][c-][c-]1.[Fe].[c-]1[c-][c-][cH-][c-]1
T/C [1]: 91 % of control | T/C (dose: 3.13 mg/kg/injection, schedule: Q04DX003 (ip), vehicle: saline with Tween-80): 98 % of control | T/C [2]: 100 % of control | T/C (dose: 6.25 mg/kg/injection, schedule: Q04DX003 (ip), vehicle: saline with Tween-80): 96 % of control | T/C (dose: 12.5 mg/kg/injection, schedule: Q01DX009 (ip), vehicle: saline with Tween-80): 97 % of control | T/C (dose: 12.5 mg/kg/injection, schedule: Q04DX003 (ip), vehicle: saline with Tween-80): 94 % of control

CCOc1ccc(/C=N\N=C\c2ccc(OCC)cc2)cc1
T/C [3]: 95 % of control | T/C [4]: 90 % of control and 110 % of control

COc1cccc(/C=N\N=C\c2cccc(OC)c2OC)c1OC
T/C (dose: 6.25 mg/kg/injection, schedule: Q01DX009 (ip), vehicle: saline): 95 % of control | T/C (dose: 12.5 mg/kg/injection, schedule: Q01DX009 (ip), vehicle: saline): 97 % of control

O=C(Nc1cccc(C(F)(F)F)c1)Nc1nccs1
T/C [5]: 93 % of control | T/C [6]: 95 % of control | T/C [3]: 100 % of control | T/C [4]: 101 % of control

COc1c2occc2cc2ccc(=O)oc12
T/C (dose: 8.0 mg/kg/injection, schedule: Q01DX009 (ip), vehicle: saline with Tween-80): 104 % of control | T/C (dose: 16.0 mg/kg/injection, schedule: Q01DX009 (ip), vehicle: saline with Tween-80): 115 % of control | T/C [7]: 103 % of control | T/C (dose: 32.0 mg/kg/injection, schedule: Q01DX009 (ip), vehicle: saline with Tween-80): 95 % of control | T/C (dose: 64.0 mg/kg/injection, schedule: Q01DX009 (ip), vehicle: saline with Tween-80): 114 % of control | T/C [8]: 95 % of control | T/C (dose: 128.0 mg/kg/injection, schedule: Q01DX009 (ip), vehicle: saline with Tween-80): 93 % of control

O=C(Nc1ccccc1F)c1ccc(C(=O)Nc2ccccc2F)cc1
T/C [9]: 100 % of control | T/C [5]: 105 % of control | T/C [6]: 101 % of control

O=P(OCc1ccccc1)(OCc1ccccc1)C(Nc1ccccc1)c1ccccc1 (stereo not given)
T/C [6]: 97 % of control | T/C [3]: 90 % of control | T/C [4]: 90 % of control

Clc1ccc(CN2COc3c(ccc4cccnc34)C2)cc1Cl
T/C [7]: 106 % of control | T/C [10]: 108 % of control | T/C [8]: 107 % of control

OCC1OC(O)C(O)C(O)C1O (stereo not given)
T/C (dose: 500.0 mg/kg/injection, schedule: Q01DX009 (ip), vehicle: saline): 98 % of control | T/C (dose: 1000.0 mg/kg/injection, schedule: Q01DX009 (ip), vehicle: saline): 93 % of control | T/C (dose: 2000.0 mg/kg/injection, schedule: Q01DX009 (ip), vehicle: saline): 103 % of control | T/C (dose: 4000.0 mg/kg/injection, schedule: Q01DX009 (ip), vehicle: saline): 97 % of control

O=[N+]([O-])c1ccc(NCCO)c([N+](=O)[O-])c1
T/C [10]: 100 % of control | T/C [8]: 100 % of control | T/C (dose: 100.0 mg/kg/injection, schedule: Q04DX003 (ip), vehicle: saline with Tween-80): 94 % of control | T/C [11]: 92 % of control | T/C (dose: 200.0 mg/kg/injection, schedule: Q04DX003 (ip), vehicle: saline with Tween-80): 89 % of control

O=C(Nc1cc(C(F)(F)F)ccc1Cl)c1cccc(C(=O)Nc2cc(C(F)(F)F)ccc2Cl)c1
T/C [9]: 101 % of control | T/C [5]: 101 % of control | T/C [6]: 101 % of control

Cc1ccc(NC(=O)Nc2ccccc2)cc1Cl
T/C (dose: 100.0 mg/kg/injection, schedule: Q01DX008 (sc), vehicle: olive oil, sesame oil, peanut oil): 99 % of control | T/C (dose: 200.0 mg/kg/injection, schedule: Q01DX008 (sc), vehicle: olive oil, sesame oil, peanut oil): 96 % of control | T/C (dose: 400.0 mg/kg/injection, schedule: Q01DX008 (sc), vehicle: olive oil, sesame oil, peanut oil): 98 % of control

O=C1N[C@@H]2C(=C[C@H](O)[C@@H](O)[C@H]2O)c2cc3c(c(O)c21)OCO3
T/C (dose: 2.5 mg/kg/injection, schedule: Q01DX009 (ip), vehicle: saline with Tween-80): 111 % of control

CC(C)(C)OC(=O)NC(CCC(N)=O)C(=O)ON1C(=O)CCC1=O (stereo not given)
T/C [10]: 100 % of control | T/C [8]: 93 % of control | T/C [11]: 97 % of control | T/C [12]: 86 % of control

O=C(Nc1ccccc1)Oc1ccc(Cl)cc1
T/C [3]: 93 % of control | T/C [4]: 94 % of control | T/C (dose: 400.0 mg/kg/injection, schedule: Q01DX009 (ip), vehicle: Klucel (hydroxypropylcellulose) (HPC)): 99 % of control

CCCCCCC(=O)CCCCCCCCCCCCC(=O)OC
T/C (dose: 1.56 mg/kg/injection, schedule: Q01DX009 (ip), vehicle: saline with Tween-80): 98 % of control | T/C [1]: 105 % of control | T/C [2]: 97 % of control

Nc1ccccc1SC1CC(=O)N(c2cccc(Cl)c2)C1=O (stereo not given)
T/C [3]: 95 % of control | T/C [4]: 90 % of control

CC(C)C(Br)C(=O)NCC(=O)NCC(=O)O (stereo not given)
T/C [11]: 91 % of control | T/C [12]: 87 % of control

Cc1cc(Cl)ccc1NS(=O)(=O)c1cccc([N+](=O)[O-])c1
T/C [8]: 116 % of control | T/C [11]: 121 % of control | T/C [12]: 107 % of control

O=C(c1ccccc1)c1cc([N+](=O)[O-])cc([N+](=O)[O-])c1
T/C [8]: 97 % of control | T/C [11]: 91 % of control | T/C [12]: 89 % of control

CC(C)NC(=O)OCc1c(COC(=O)NC(C)C)c(-c2ccc(Cl)c(Cl)c2)n2c1CCC2
T/C (dose: 1.56 mg/kg/injection, schedule: Q01DX009 (ip), vehicle: distilled water + Tween-80): 102 % of control | T/C (dose: 2.34 mg/kg/injection, schedule: Q01DX009 (ip), vehicle: other): 123 % of control | T/C (dose: 3.11 mg/kg/injection, schedule: Q01DX009 (ip), vehicle: distilled water + Tween-80): 118 % of control | T/C (dose: 3.12 mg/kg/injection, schedule: Q01DX009 (ip), vehicle: distilled water + Tween-80): 120 % of control | T/C (dose: 4.69 mg/kg/injection, schedule: Q01DX009 (ip), vehicle: saline with Tween-80): 183 % of control | T/C (dose: 9.38 mg/kg/injection, schedule: Q01DX009 (ip), vehicle: other): 169 % of control | T/C (dose: 9.38 mg/kg/injection, schedule: Q01DX009 (ip), vehicle: saline with Tween-80): 173 % of control | T/C (dose: 12.5 mg/kg/injection, schedule: Q01DX009 (ip), vehicle: distilled water + Tween-80): 168 % of control | T/C (dose: 14.4 mg/kg/injection, schedule: Q01DX009 (ip), vehicle: distilled water + Tween-80): 179 % of control | T/C (dose: 18.75 mg/kg/injection, schedule: Q01DX009 (ip), vehicle: other): 197 % of control | T/C (dose: 18.75 mg/kg/injection, schedule: Q01DX009 (ip), vehicle: saline with Tween-80): 239 % of control | T/C (dose: 25.0 mg/kg/injection, schedule: Q01DX009 (ip), vehicle: distilled water + Tween-80): 200 % of control | T/C (dose: 37.5 mg/kg/injection, schedule: Q01DX009 (ip), vehicle: saline with Tween-80): 245 % of control | T/C (dose: 40.0 mg/kg/injection, schedule: Q01DX009 (ip), vehicle: distilled water + Tween-80): 103 % of control | T/C (dose: 50.0 mg/kg/injection, schedule: Q01DX009 (ip), vehicle: distilled water + Tween-80): 100 % of control | T/C (dose: 75.0 mg/kg/injection, schedule: Q01DX009 (ip), vehicle: saline with Tween-80): 215 % of control

c1ccc2c(c1)C1=NCCN1c1ccccc1-2
T/C (dose: 12.0 mg/kg/injection, schedule: Q01DX009 (ip), vehicle: saline with Tween-80): 92 % of control | T/C (dose: 18.0 mg/kg/injection, schedule: Q01DX009 (ip), vehicle: saline with Tween-80): 94 % of control | T/C (dose: 26.0 mg/kg/injection, schedule: Q01DX009 (ip), vehicle: saline with Tween-80): 102 % of control

COc1ccc(C(=O)/C(Br)=C/C(=O)O)cc1
T/C (dose: 2.5 mg/kg/injection, schedule: Q01DX009 (ip), vehicle: saline): 99 % of control | T/C (dose: 5.0 mg/kg/injection, schedule: Q01DX009 (ip), vehicle: saline): 96 % of control | T/C (dose: 10.0 mg/kg/injection, schedule: Q01DX009 (ip), vehicle: saline): 95 % of control and 98 % of control | T/C (dose: 20.0 mg/kg/injection, schedule: Q01DX009 (ip), vehicle: saline): 96 % of control | T/C (dose: 40.0 mg/kg/injection, schedule: Q01DX009 (ip), vehicle: saline): 95 % of control and 100 % of control
